Results reported in article PMC12176101 (Drug Design, Development and Therapy, 2025).
Residues, ends and D or L forms follow the SMILES beside them.

Biological target: AChE (Homo sapiens, UniProt P22303)
Assay: In vitro anti-AChE assay
Assay type: biochemical

Chain of AChE (P22303 32-614): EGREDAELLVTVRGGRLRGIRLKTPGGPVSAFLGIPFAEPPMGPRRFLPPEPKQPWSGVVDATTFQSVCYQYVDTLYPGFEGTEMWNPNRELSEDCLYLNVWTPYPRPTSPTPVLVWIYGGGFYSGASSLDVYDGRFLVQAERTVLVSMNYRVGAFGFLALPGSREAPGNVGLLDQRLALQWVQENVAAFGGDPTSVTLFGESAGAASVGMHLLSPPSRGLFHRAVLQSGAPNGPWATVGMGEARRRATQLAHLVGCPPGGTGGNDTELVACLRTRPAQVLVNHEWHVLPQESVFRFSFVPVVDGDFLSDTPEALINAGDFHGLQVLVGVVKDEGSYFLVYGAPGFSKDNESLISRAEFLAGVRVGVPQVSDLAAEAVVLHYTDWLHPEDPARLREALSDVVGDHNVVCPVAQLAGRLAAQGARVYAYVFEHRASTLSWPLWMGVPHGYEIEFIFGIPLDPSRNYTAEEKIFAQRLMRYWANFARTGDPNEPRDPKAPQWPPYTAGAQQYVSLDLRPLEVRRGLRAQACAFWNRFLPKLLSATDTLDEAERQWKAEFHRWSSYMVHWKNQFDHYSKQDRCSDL

Row | SMILES | IC50 [nM]
1 | CSCC[C@H](NC(=O)[C@@H](NC(=O)[C@H](Cc1c[nH]cn1)NC(=O)[C@@H](N)CC(C)C)[C@@H](C)O)C(=O)N[C@@H](CCC(=O)O)C(=O)N[C@@H](CC(C)C)C(=O)N[C@@H](CC(C)C)C(=O)O [LHTMELL] (H-LHTMELL-OH) | 10600
2 | CC[C@H](C)[C@H](NC(=O)[C@H](Cc1c[nH]c2ccccc12)NC(=O)[C@@H](N)C(C)C)C(=O)N[C@H](C(=O)NCC(=O)N[C@@H](Cc1ccccc1)C(=O)N[C@@H](CCC(=O)O)C(=O)N[C@@H](Cc1c[nH]cn1)C(=O)N[C@@H](CCSC)C(=O)O)[C@@H](C)CC [VWIIGFEHM] (H-VWIIGFEHM-OH) | 3900
3 | CC(C)C[C@H](NC(=O)[C@H](Cc1c[nH]cn1)NC(=O)[C@@H](N)Cc1c[nH]c2ccccc12)C(=O)N[C@@H](CS)C(=O)N[C@H](C(=O)N[C@@H](CC(C)C)C(=O)N[C@@H](Cc1ccccc1)C(=O)O)C(C)C [WHLCVLF] (H-WHLCVLF-OH) | 1500
4 | CC[C@H](C)[C@H](NC(=O)[C@@H](N)Cc1c[nH]c2ccccc12)C(=O)NCC(=O)N[C@@H](CS)C(=O)N[C@@H](Cc1c[nH]c2ccccc12)C(=O)N[C@@H](CC(=O)O)C(=O)O [WIGCWD] (H-WIGCWD-OH) | 1900
